Test results published in PMC7649837, “Protein–fragment complex structures derived by NMR molecular replacement” (RSC Medicinal Chemistry, 2020).

Target: PIN1 (Homo sapiens, UniProt Q13526)
Assay: NMR methyl chemical shift perturbation titration; intermolecular NOEs and NMR2 complex structure
Format: binding

PIN1, sequence (Q13526 whole entry): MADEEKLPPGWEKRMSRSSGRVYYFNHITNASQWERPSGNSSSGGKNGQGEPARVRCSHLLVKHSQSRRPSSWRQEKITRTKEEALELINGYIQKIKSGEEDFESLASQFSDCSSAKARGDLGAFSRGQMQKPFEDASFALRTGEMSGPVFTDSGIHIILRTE

Cc1cccc(-c2nc(C(=O)O)c(C)[nH]2)c1 [compound 1] showed a Kd of 260 µM.

Work on Cc1nc(-c2cccc(C(F)(F)F)c2)[nH]c1C(=O)O [compound 3] yielded a Kd of 6700 µM.

Cc1nc(-c2cccc(Cl)c2)[nH]c1C(=O)O [compound 2] gave a Kd of 670 µM.
